Experimental findings from patent publication US12473304B2, “Heterocyclic PAD4 inhibitors” (BRISTOL-MYERS SQUIBB COMPANY, priority 2020, dated 2025) are described below.

A word on the IC50: it is the concentration needed to halve the response being measured.

The assay addresses human PAD4 (hPAD4) (Homo sapiens (Human), UniProt Q9UM07). In words: RFMS Human PAD4 Functional Assay 1. Type of assay: biochemical. The note with it: RFMS assay 1; 5 nM hPAD4, 250 μM BAEE substrate, 50 μM calcium, 37° C. Put shortly:
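Recombinant hPAD4 (5 nM) was preincubated with compound (top 50 μM, 0.5% DMSO) for 30 min at 37 °C, then reacted with 250 μM BAEE for 90 min at 37 °C in pH 7.5 HEPES buffer with 50 μM calcium and 5 μM TPEN. Product was derivatized with phenyl glyoxal and quantified by RapidFire MS.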

Structures are written as SMILES.

human PAD4 (hPAD4), sequence (Q9UM07 whole entry): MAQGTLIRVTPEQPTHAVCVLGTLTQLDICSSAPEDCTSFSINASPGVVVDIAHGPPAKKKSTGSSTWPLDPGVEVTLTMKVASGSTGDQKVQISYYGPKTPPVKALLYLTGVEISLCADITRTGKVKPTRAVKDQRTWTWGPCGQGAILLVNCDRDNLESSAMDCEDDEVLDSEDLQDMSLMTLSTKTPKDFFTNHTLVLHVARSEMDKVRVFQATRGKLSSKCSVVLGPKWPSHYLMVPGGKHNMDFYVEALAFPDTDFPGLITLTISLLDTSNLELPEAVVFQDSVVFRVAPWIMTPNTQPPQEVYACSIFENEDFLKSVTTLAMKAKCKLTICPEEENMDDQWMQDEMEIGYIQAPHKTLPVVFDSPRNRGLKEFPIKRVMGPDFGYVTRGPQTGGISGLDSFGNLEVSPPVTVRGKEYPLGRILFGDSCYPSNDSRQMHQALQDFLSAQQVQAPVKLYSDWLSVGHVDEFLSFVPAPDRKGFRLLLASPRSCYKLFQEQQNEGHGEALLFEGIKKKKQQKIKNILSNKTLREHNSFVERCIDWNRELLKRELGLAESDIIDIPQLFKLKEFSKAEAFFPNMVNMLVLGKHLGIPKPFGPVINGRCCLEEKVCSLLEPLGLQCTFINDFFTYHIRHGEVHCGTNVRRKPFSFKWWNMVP

On to `Cc1c(-c2cc3cccnc3n2CC2CC2)nn2cc(C(=O)N3CC4CCC3[C@@H]4N)ccc12` (stereo partly drawn) [Example 63, ((7R)-7-Amino-2-azabicyclo[2.2.1]heptan-2-yl)(2-(1-(cyclopropylmethyl)-1H-pyrrolo[2,3-b]pyridin-2-yl)-3-methylpyrazolo[1,5-a]pyridin-6-yl)methanone], for which the IC50 was 0.227 µM.

For `Cc1c(-c2cc3cccc(C4CCN(C(=O)C(C)(C)O)CC4)c3n2CC2CC2)nn2cc(C(=O)N3CCC[C@@H](N)C3)ccc12` [Example 436, (R)-1-(4-(2-(6-(3-aminopiperidine-1-carbonyl)-3-methylpyrazolo[1,5-a]pyridin-2-yl)-1-(cyclopropylmethyl)-1H-indol-7-yl)piperidin-1-yl)-2-hydroxy-2-methylpropan-1-one], the IC50 amounted to 0.3 µM.

For `Cc1c(-c2cc3cccc(C4CCN(C(=O)CC(C)C)CC4)c3n2CC2CC2)nn2cc(C(=O)N3CCC[C@@H](N)C3)ccc12` [Example 446, (R)-1-(4-(2-(6-(3-aminopiperidine-1-carbonyl)-3-methylpyrazolo[1,5-a]pyridin-2-yl)-1-(cyclopropylmethyl)-1H-indol-7-yl)piperidin-1-yl)-3-methylbutan-1-one], the IC50 was 0.13 µM.

For `Cc1c(-c2cc3cccc(C4CCN(C(=O)[C@H]5CC[C@@H](O)CC5)CC4)c3n2CC2CC2)nn2cc(C(=O)N3C[C@H](N)C[C@@H](F)C3)cc(F)c12` [Example 416, ((3R,5R)-3-Amino-5-fluoropiperidin-1-yl)(2-(1-(cyclopropylmethyl)-7-(1-((1s,4s)-4-hydroxycyclohexane-1-carbonyl)piperidin-4-yl)-1H-indol-2-yl)-4-fluoro-3-methylpyrazolo[1,5-a]pyridin-6-yl)methanone], the IC50 amounted to 0.56 µM.

Consider `COc1cc(C(=O)N2CC3CCC2[C@@H]3N)cc2oc(-c3cc4ccc(-c5ccc(C(N)=O)c(F)c5)cc4n3CC3CC3)c(C)c12` (stereo partly drawn) [Example 152, 4-(2-(6-((7R)-7-Amino-2-azabicyclo[2.2.1]heptane-2-carbonyl)-4-methoxy-3-methylbenzofuran-2-yl)-1-(cyclopropylmethyl)-1H-indol-6-yl)-2-fluorobenzamide], for which the IC50 amounted to 0.192 µM.

On to `Cc1c(-c2cc3cccc(C4CCN(C(=O)C5CC(O)(C(F)(F)F)C5)CC4)c3n2CC2CC2)nn2cc(C(=O)N3C[C@H](N)C[C@@H](F)C3)cc(F)c12` (mixture of isomers) [Example 421, ((3R,5R)-3-Amino-5-fluoropiperidin-1-yl)(2-(1-(cyclopropylmethyl)-7-(1-(3-hydroxy-3-(trifluoromethyl)cyclobutane-1-carbonyl)piperidin-4-yl)-1H-indol-2-yl)-4-fluoro-3-methylpyrazolo[1,5-a]pyridin-6-yl)methanone], for which the IC50 was 0.08 µM.

Consider `COc1cc(C(=O)N2C[C@H](N)C[C@@H](F)C2)cn2nc(-c3cc4ccc(N5C[C@H](N)C[C@@H](F)C5)cc4n3CC3CC3)c(C)c12` [Example 34, ((3R,5R)-3-Amino-5-fluoropiperidin-1-yl)(2-(6-((3R,5R)-3-amino-5-fluoropiperidin-1-yl)-1-(cyclopropylmethyl)-1H-indol-2-yl)-4-methoxy-3-methylpyrazolo[1,5-a]pyridin-6-yl)methanone], for which the IC50 was 0.042 µM.

For the molecule `COc1cc(C(=O)N2CCC[C@@H](N)C2)cn2nc(-c3cc4ccc(-c5cc(F)c6[nH]c(=O)ccc6c5C)cc4n3CC3CC3)c(C)c12` [Example 239, 6-(2-{6-[(3R)-3-Aminopiperidine-1-carbonyl]-4-methoxy-3-methylpyrazolo[1,5-a]pyridin-2-yl}-1-(cyclopropylmethyl)-1H-indol-6-yl)-8-fluoro-5-methyl-1,2-dihydroquinolin-2-one], the IC50 worked out at 0.07 µM.

In the case of `Cc1c(-c2cc3ccc(-c4ccc5c(c4)CNC5=O)nc3n2CC2CC2)nn2cc(C(=O)N3CCC[C@@H](N)C3)ccc12` [Example 317, 5-(2-{6-[(3R)-3-Aminopiperidine-1-carbonyl]-3-methylpyrazolo[1,5-a]pyridin-2-yl}-1-(cyclopropylmethyl)-1H-pyrrolo[2,3-b]pyridin-6-yl)-2,3-dihydro-1H-isoindol-1-one], the IC50 is 0.51 µM.

With `COc1cc(C(=O)N2CC3CCC2[C@@H]3N)cn2nc(-c3cc4ccc(N5CC(OC)C5)nc4n3CC3CC3)c(C)c12` (stereo partly drawn) [Example 13, ((7R)-7-Amino-2-azabicyclo[2.2.1]heptan-2-yl)(2-(1-(cyclopropylmethyl)-6-(3-methoxyazetidin-1-yl)-1H-pyrrolo[2,3-b]pyridin-2-yl)-4-methoxy-3-methylpyrazolo[1,5-a]pyridin-6-yl)methanone], the IC50 turned out to be 0.163 µM.

In the case of `Cc1c(-c2cc3cccc(OCC4CNC(=O)C4)c3n2CC2CC2)nn2cc(C(=O)N3C[C@H](N)C[C@@H](F)C3)ccc12` (single isomer, unassigned) [Example 590], the IC50 was determined as 0.03 µM.

With `Cc1c(-c2cc3ccc(-c4ccc(NS(C)(=O)=O)cc4)cc3n2CC2CC2)nn2cc(C(=O)N3CCC[C@@H](N)C3)ccc12` [Example 347, N-[4-(2-{6-[(3R)-3-Aminopiperidine-1-carbonyl]-3-methylpyrazolo[1,5-a]pyridin-2-yl}-1-(cyclopropylmethyl)-1H-indol-6-yl)phenyl]methanesulfonamide], the IC50 was 0.29 µM.

`Cc1c(-c2cc3ccc(C4CC4)nc3n2CC2CC2)nn2cc(C(=O)N3C[C@H](N)C[C@@H](F)C3)cc(F)c12` [Example 57, ((3R,5R)-3-Amino-5-fluoropiperidin-1-yl)(2-(6-cyclopropyl-1-(cyclopropylmethyl)-1H-pyrrolo[2,3-b]pyridin-2-yl)-4-fluoro-3-methylpyrazolo[1,5-a]pyridin-6-yl)methanone]: the half-inhibitory concentration (IC50) came to 0.781 µM.

For `Cc1c(-c2cc3ccc(C(C)(O)C(F)F)nc3n2CC2CC2)nn2cc(C(=O)N3CC4CCC3[C@@H]4N)ccc12` (mixture of isomers) [Example 381, 2-(2-{6-[(7R)-7-Amino-2-azabicyclo[2.2.1]heptane-2-carbonyl]-3-methylpyrazolo[1,5-a]pyridin-2-yl}-1-(cyclopropylmethyl)-1H-pyrrolo[2,3-b]pyridin-6-yl)-1,1-difluoropropan-2-ol], the IC50 amounted to 0.02 µM.

As to `Cc1c(-c2cc3ccc(-c4ccn5c(C)nnc5c4)cc3n2CC2CC2)oc2cc(C(=O)N3C[C@H](N)C[C@@H](F)C3)ccc12` [Example 197, ((3R,5R)-3-Amino-5-fluoropiperidin-1-yl)(2-(1-(cyclopropylmethyl)-6-(3-methyl-[1,2,4]triazolo[4,3-a]pyridin-7-yl)-1H-indol-2-yl)-3-methylbenzofuran-6-yl)methanone], the IC50 was 0.317 µM.

With `Cc1c(-c2cc3cccc(C4CCN(C(=O)CC(C)C)CC4)c3n2CC2CC2)nn2cc(C(=O)N3C[C@H](N)C[C@@H](F)C3)ccc12` [Example 445, 1-(4-(2-(6-((3R,5R)-3-amino-5-fluoropiperidine-1-carbonyl)-3-methylpyrazolo[1,5-a]pyridin-2-yl)-1-(cyclopropylmethyl)-1H-indol-7-yl)piperidin-1-yl)-3-methylbutan-1-one], the IC50 was found to be 0.16 µM.

In the case of `COc1nc(C(=O)N2C[C@H](N)C[C@@H](F)C2)cn2nc(-c3cc4ccccc4n3CC3CC3)c(C)c12` [Example 114, ((3R,5R)-3-Amino-5-fluoropiperidin-1-yl)(2-(1-(cyclopropylmethyl)-1H-indol-2-yl)-4-methoxy-3-methylpyrazolo[1,5-a]pyrazin-6-yl)methanone], the IC50 amounted to 3.98 µM.

As to `COCC(=O)N1CCC(c2cccc3cc(-c4nn5cc(C(=O)N6C[C@H](N)C[C@@H](F)C6)cc(F)c5c4C)n(CC4CC4)c23)CC1` [Example 428, 1-(4-(2-(6-((3R,5R)-3-Amino-5-fluoropiperidine-1-carbonyl)-4-fluoro-3-methylpyrazolo[1,5-a]pyridin-2-yl)-1-(cyclopropylmethyl)-1H-indol-7-yl)piperidin-1-yl)-2-methoxyethan-1-one], the IC50 stood at 0.03 µM.

Consider `Cc1c(-c2cc3ccc(-c4ccccc4N4CCNC4=O)nc3n2CC2CC2)nn2cc(C(=O)N3CC4CCC3[C@@H]4N)ccc12` (stereo partly drawn) [Example 302, 1-[2-(2-{6-[(7R)-7-Amino-2-azabicyclo[2.2.1]heptane-2-carbonyl]-3-methylpyrazolo[1,5-a]pyridin-2-yl}-1-(cyclopropylmethyl)-1H-pyrrolo[2,3-b]pyridin-6-yl)phenyl]imidazolidin-2-one], for which the IC50 amounted to 0.12 µM.

As for `COc1cc(C(=O)N2CC3CCC2[C@@H]3N)cc2sc(-c3cc4ccc(-c5cccc(O)c5F)cc4n3CC3CC3)c(C)c12` (stereo partly drawn) [Example 121, ((7R)-7-Amino-2-azabicyclo[2.2.1]heptan-2-yl)(2-(1-(cyclopropylmethyl)-6-(2-fluoro-3-hydroxyphenyl)-1H-indol-2-yl)-4-methoxy-3-methylbenzo[b]thiophen-6-yl)methanone], the IC50 came to 1.5 µM.

Consider `COCC(=O)N1CCC(c2cccc3cc(-c4nn5cc(C(=O)N6CCC[C@@H](N)C6)ccc5c4C)n(CC4CC4)c23)CC1` [Example 455, (R)-1-(4-(2-(6-(3-aminopiperidine-1-carbonyl)-3-methylpyrazolo[1,5-a]pyridin-2-yl)-1-(cyclopropylmethyl)-1H-indol-7-yl)piperidin-1-yl)-2-methoxyethan-1-one], for which the IC50 stood at 0.27 µM.

Consider `Cc1c(-c2cc3ccc(C(C)(C)O)nc3n2CC2CC2)nn2cc(C(=O)N3CC4CCC3[C@@H]4N)ccc12` (stereo partly drawn) [Example 102, ((7R)-7-Amino-2-azabicyclo[2.2.1]heptan-2-yl)(2-(1-(cyclopropylmethyl)-6-(2-hydroxypropan-2-yl)-1H-pyrrolo[2,3-b]pyridin-2-yl)-3-methylpyrazolo[1,5-a]pyridin-6-yl)methanone], for which the IC50 was 0.012 µM.
